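These data come from cells grown in 96-well plates and exposed to compound for 48 hours at five concentrations. At the GI50, growth is halved. The concentration for full growth arrest is given as TGI.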 Where a SMILES comes first, the peptide text is derived from it. [ ]: non-standard residue; d: D form. Phe(ol) = N[C@H](CO)Cc1ccccc1; dIva = CC[C@@](C)(N)C(=O)O; Aib = CC(C)(N)C(=O)O
Test system: MDA-MB-468 breast
Assay: NCI-60 cell line screen, 48 h

Compound | GI50 [µM] | TGI [µM]
Oc1ccc2c(=S)cc(-c3ccc(Br)cc3)oc2c1O | 2.08 | 6.5
COc1ccc2c(C3=C(c4cn(C)c5ccccc45)C(=O)NC3=O)coc2c1 | 0.278 | 3.48
CCOc1cc(-c2nncn2C)ccc1Nc1ncc2cc(C)nc(NCC(C)(C)C)c2n1 | > 20.2 | > 100
CC1=CC(=O)N(c2cccc3c(N4C(=O)C=C(C)C4=O)cccc23)C1=O | 2.09 | 5.51
Cc1ccc(N)cc1[As]=[As]c1cc(N)ccc1C (stereo unspecified) | 0.243 | 0.944
COc1ccc(Cn2cc(COc3cc(/C=C/C(=O)c4cc(OC)c(OC)c(OC)c4)ccc3OC)nn2)cc1 | 2.05 | 7
COc1cc(-c2nn(-c3ccc(NC(=O)Nc4cc(C(F)(F)F)cc(C(F)(F)F)c4)cc3)cc2-c2ccncc2)ccc1Cl | 1.45 | 3.35
Cc1sc(C(=O)c2cncnc2N[C@@H]2C[C@H](COS(N)(=O)=O)[C@@H](O)C2)cc1[C@@H]1NCCc2ccc(Cl)cc21 | 0.104 | 14.8
CC[C@@H](C)/C=C(C)/C=C/C(=O)c1c(O)c(-c2ccc(OC(=O)[C@@]34CC[C@@](C)(C(=O)O3)C4(C)C)cc2)cn(O)c1=O | 1.32 | 10.8
COC(=O)[C@H](Cc1cn(C)cn1)NC(=O)[C@H](CC(=O)OCc1ccccc1)NC(=O)Nc1cc(C(F)(F)F)cc(C(F)(F)F)c1 | 2.1 | 6.55
Cc1ccc(C[As+](c2ccccc2)(c2ccccc2)c2ccccc2)cc1 | 0.185 | 1.08
O=C(Nc1nc(-c2ccc(Cl)cc2)cs1)c1cc(O)c(O)c(O)c1 | 213 | 2290
Cc1ccc(/C=N/NC(=O)c2ccccc2Oc2ccccc2)o1 | 19.6 | 65.7
O=C1/C(=C\c2ccc(F)cc2)CN(C(=O)c2ccccc2F)C/C1=C\c1ccc(F)cc1 | 1.51 | 3.4
COc1cc2c(cc1OC)C(C(CCCCCC(CCC(C)C)C1NCCc3cc(OC)c(OC)cc31)CCC(C)C)NCC2 (stereo unspecified) | 0.588 | 1.25
Cc1nc2sc(C(=O)Nc3cccc(Br)c3C)c(N)c2cc1C(O)c1ccccc1 (stereo unspecified) | 0.0398 | 26
NC(=O)c1c(NC(=O)c2cccs2)sc2c1CCC(=O)C2 | 2.58 | 8.77
CN1CCC2(CC1)N=C(SCC(=O)Nc1cnc3ccccc3c1)C(c1ccc(Br)cc1)=N2 | 1.76 | 3.5
C=CCn1c2ccccc2c2c3c(c4c5ccccc5n(CC=C)c4c21)C(=O)N(O)C3=O | 3.88 | 41.9

Compound | GI50 [µM] | TGI [µM]
O=C(Nc1ccncc1)C(=O)c1cn(S(=O)(=O)c2cccc(Cl)c2)c2ccccc12 | 0.763 | 45.3
O=C(/C=C/c1ccccc1)c1cccc2ccccc12 | 2 | 5.64
CCN(CC)C1Oc2cc3c(cc2C(c2cc(OC)c(O)c(OC)c2)C1C)OCO3 (stereo unspecified) | 11.6 | 70.7
COc1ccc(OC)c(Nc2nc3nonc3nc2Nc2cccc(Br)c2)c1 | 0.343 | 3.88
C#C[C@@]1(O)[C@@H](CO)O[C@@H](n2cc(Br)c3c(Cl)ccnc32)[C@@H]1O | 0.836 | > 31.6
O=C(O)CCC(c1ccccc1)(c1ccccc1)c1ccccc1 | 57.9 | > 100
CN1CCN(CCCNC(=O)c2c3c(n4ccccc24)C(=O)c2ncccc2C3=O)CC1 | 0.637 | 1.86
CN(C)c1ccc(/C=C(\C#N)c2cc3ccccc3[nH]2)cc1 | 0.373 | 4.2
C/C=C/c1cc2c(cc1O)CC[C@@H]1[C@@H]2CC[C@]2(C)[C@@H](O)CC[C@@H]12 | 2.99 | 17.1
COC(=O)c1c[nH]c2cc(OC(C)C)c(OC(C)C)cc2c1=O | > 100 | > 100
CCCCC(=O)N(c1ccc(Nc2c3ccccc3nc3cc([N+](=O)[O-])ccc23)cc1)S(C)(=O)=O | 0.433 | 5.7
COc1cc(C(=O)/C=C/c2cc(-c3ccc4c(c3)OCO4)n[nH]2)cc(OC)c1OC | 1.4 | 3.5
c1ccc(-c2[nH]ncc2-c2ccnc(-c3ccc(OCCN4CCOCC4)cc3)c2)nc1 | > 25 | > 25
NCCCNc1nc2ccccc2c2c(=O)c3cc(F)ccc3sc12 | 1.2 | 2.59
CC[C@@](C)(NC(=O)C(C)(C)NC(=O)[C@@H](NC(=O)[C@@H]1CCCN1C(=O)C(C)(C)NC(=O)[C@H](CC(C)C)NC(=O)CNC(=O)C(C)(C)NC(=O)[C@@H](NC(=O)C(C)(C)NC(=O)[C@H](CCC(N)=O)NC(=O)[C@H](C)NC(=O)C(C)(C)NC(=O)[C@H](C)NC(=O)C(C)(C)NC(=O)[C@@H]1CCCN1C(=O)C(C)(C)NC(C)=O)C(C)C)C(C)C)C(=O)N[C@@H](CCC(N)=O)C(=O)N[C@@H](CCC(N)=O)C(=O)N[C@H](CO)Cc1ccccc1 (Ac-[Aib]P[Aib]A[Aib]AQ[Aib]V[Aib]GL[Aib]PV[Aib][dIva]QQ[Phe(ol)]) | 0.867 | 3.67
Cn1c(CCCC(=O)O)nc2cc(N(CCCl)CCCl)ccc21 | 17.1 | > 100
CC12OC(CC(O)C1O)n1c3ccccc3c3c4c(c5c6ccccc6n2c5c31)C(=O)N(CCN1CCOCC1)C4=O (stereo unspecified) | 1.17 | 3.19
C[C@@H](Nc1cc(F)cc(F)c1)c1cc(C(=O)N(C)C)cc2c(=O)cc(N3CCOCC3)oc12 | 0.692 | 13.1
C=C1C(=O)O[C@H]2[C@H]1CC/C(COC(=O)c1cccnc1N)=C\CC[C@@]1(C)O[C@@H]21 | 0.958 | 4.18

From PubChem BioAssay (NCI)
